Measurements: patent US11034658B2, “Pyridinyl pyrazoles as modulators of RORγT” (Janssen Pharmaceutica NV, priority 2018, dated 2021)
Marks after values point to notes of the source that are not given here.

Columns and labels:
[1] = target: human RORγt ligand binding domain (RORγt LBD) (Homo sapiens (Human), UniProt P51449); test: RORγt ThermoFluor assay
Text: ThermoFluor® is a fluorescence based assay that estimates ligand binding affinities by measuring the effect of a ligand on protein thermal stability (Pantoliano, M. W., Petrella, E. C., Kwasnoski, J. D., Lobanov, V. S., Myslik, J., Graf, E., Carver, T., Asel, E., Springer, B. A., Lane, P., and Salemme, F. R. (2001) High-density miniaturized thermal shift assays as a general strategy for drug discovery. J Biomol Screen 6, 429-40, and Matulis, D., Kranz, J. K., Salemme, F. R., and Todd, M. J. (2005) Thermodynamic stability of carbonic anhydrase: measurements of binding affinity and stoichiometry using ThermoFluor. Biochemistry 44, 5258-66). This approach is applicable to a wide variety of systems, and rigorous in theoretical interpretation through quantitation of equilibrium binding constants (KD).
The shift in the melting point described as a ΔTm is proportional to the concentration and affinity of the ligand. The compound potency may be compared as a rank order of either values at a single compound concentration or in terms of KD values, estimated from concentration response curves.
RORγt ThermoFluor® Assay Construct
For the RORγt construct used in the ThermoFluor® assay, numbering for the nucleotide sequences was based on the reference sequence for human RORγt, transcript variant 2, NCBI Accession: NM 001001523.1 (SEQ ID NO:1). Nucleotides 850-1635 (SEQ ID NO:2) coding for the wild type human RORγt ligand binding domain (RORγt LBD) were cloned into the pHIS1 vector, a modified pET E. coli expression vector (Accelagen, San Diego), containing an in-frame N-terminal His-tag and a TurboTEV protease cleavage site (ENLYFQG, SEQ ID NO:3) upstream of the cloned insert sequence. The amino acid sequence for the RORγt construct used in the Thermofluor® assay is shown as SEQ ID NO:4.
ThermoFluor® experiments were carried out using instruments owned by Janssen Research and Development, L.L.C. through its acquisition of 3-Dimensional Pharmaceuticals, Inc. 1,8-ANS (Invitrogen) was used as a fluorescent dye. Protein and compound solutions are dispensed into black 384-well polypropylene PCR microplates (Abgene) and overlayed with silicone oil (1 μL, Fluka, type DC 200) to prevent evaporation.
Bar-coded assay plates are robotically loaded onto a thermostatically controlled PCR-type thermal block and then heated at a typical ramp-rate of 1° C./min for all experiments. Fluorescence was measured by continuous illumination with UV light (Hamamatsu LC6) supplied via fiber optic and filtered through a band-pass filter (380-400 nm; >6 OD cutoff). Fluorescence emission of the entire 384-well plate was detected by measuring light intensity using a CCD camera (Sensys, Roper Scientific) filtered to detect 500±25 nm, resulting in simultaneous and independent readings of all 384 wells. Images were collected at each temperature, and the sum of the pixel intensity in a given area of the assay plate was recorded versus temperature. Reference wells contained RORγt without compounds, and the assay conditions were as follows:
Project compounds were arranged in a pre-dosed mother plate (Greiner Bio-one) wherein compounds are serially diluted in 100% DMSO by 1:2 from a high concentration of 10 mM over 12 columns within a series (column 12 is a reference well containing DMSO, no compound). The compounds were robotically dispensed directly into assay plates (1×=46 nL) using a Hummingbird capillary liquid handling instrument (Digilab). Following compound dispense, protein and dye in buffer was added to achieve the final assay volume of 3 μL, followed by 1 μL of silicone oil.
The binding affinity was estimated as described previously (Matulis, D., Kranz, J. K., Salemme, F. R., and Todd, M. J. (2005) Thermodynamic stability of carbonic anhydrase: measurements of binding affinity and stoichiometry using ThermoFluor®. Biochemistry 44, 5258-66) using the following thermodynamic parameters of protein unfolding:
Reference RORγt Tm: 47.8° C.

[2] = target: full-length human RORγt (GAL4-DBD-RORγt fusion) in HEK293T cells (Homo sapiens (Human), UniProt P51449); test: RORγt (full-length human) reporter assay, conditions A or B; assay type: cell-based; settings: for IC50: HEK293T cells, read-out: RORγt (FL) Reporter Assay A or B, IC50; for inhibition at 3 µM / RORγt (FL) Reporter Assay A or B, % inhibition: 3 μM compound concentration (footnote *)
Chain of full-length human RORγt (GAL4-DBD-RORγt fusion) in HEK293T cells (P51449 other isoform, or with tags, fused parts or gaps): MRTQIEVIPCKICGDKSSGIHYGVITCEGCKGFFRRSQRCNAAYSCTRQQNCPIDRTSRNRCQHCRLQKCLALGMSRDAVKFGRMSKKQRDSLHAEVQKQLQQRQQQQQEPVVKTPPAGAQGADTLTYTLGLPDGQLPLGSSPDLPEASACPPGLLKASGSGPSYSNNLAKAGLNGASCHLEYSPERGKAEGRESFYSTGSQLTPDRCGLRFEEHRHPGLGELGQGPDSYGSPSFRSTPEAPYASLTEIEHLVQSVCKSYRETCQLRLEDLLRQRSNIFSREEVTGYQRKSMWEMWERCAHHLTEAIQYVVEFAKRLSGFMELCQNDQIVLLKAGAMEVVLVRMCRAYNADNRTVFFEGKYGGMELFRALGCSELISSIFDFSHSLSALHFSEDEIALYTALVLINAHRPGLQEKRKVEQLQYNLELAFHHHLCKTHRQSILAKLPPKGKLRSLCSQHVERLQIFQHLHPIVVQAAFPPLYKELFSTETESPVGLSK
Method: RORγt (Full-Length Human) Reporter Assay:
(§1) HEK293T cells were plated at 35,000 per well in 96-well plate in medium of DMEM with 10% FBS. […] After overnight (16 to 20 hours) incubation, media were removed and cells were lysed with 50 μL Glo Lysis Buffer (Promega) for 10-15 minutes followed by 10 minute incubation with 50 μL Dual Glo reagent (Promega) at room temperature. Firefly luciferase luminescence was measured using a BMG Pherastar plate reader. To each well, 50 μL Stop and Glo reagent was added and incubated for 10 minutes at room temperature. Renilla luminescence was measured using a BMG Pherastar plate reader. To calculate the effect of compounds on RORγt activity, firefly values were normalized against values of DMSO only and values of reference compound at saturating concentration, then further normalized against Renilla signals. IC50s were generated by plotting final Renilla normalized data against compound concentration and percent inhibition was calculated against DMSO control.
as §1, with “at 8750 cells” for “at 35,000”, “in 384-well” for “in 96-well”, “with 20” for “with 50”, “well, 20” for “well, 50”

[3] = HEK-293T, read-out: RORγt (FL) Reporter Assay A or B, % inhibition

Chain of human RORγt ligand binding domain (RORγt LBD) (P51449 other isoform, or with tags, fused parts or gaps): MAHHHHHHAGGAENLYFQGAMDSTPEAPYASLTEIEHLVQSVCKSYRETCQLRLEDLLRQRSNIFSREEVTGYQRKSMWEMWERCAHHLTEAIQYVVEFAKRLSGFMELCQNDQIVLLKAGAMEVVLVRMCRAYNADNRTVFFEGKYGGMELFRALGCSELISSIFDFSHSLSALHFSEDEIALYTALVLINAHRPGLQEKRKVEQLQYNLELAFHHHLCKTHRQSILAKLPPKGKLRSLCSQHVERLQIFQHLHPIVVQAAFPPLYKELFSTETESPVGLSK

SMILES | Kd [1] [nM] | IC50 [2] [nM] | inhibition at 3 µM [2, 3] [%] | inhibition at 1 µM ([2]; HEK-293T, 1 μM compound concentration (footnote ***), read-out: RORγt (FL) Reporter Assay A or B, % inhibition) [%] | RORγt (FL) Reporter Assay A or B, % inhibition [2]
CCn1nc(C(=O)NC[C@@]2(O)CC[C@H](S(C)(=O)=O)C[C@@H]2O)c(Cl)c1-c1cnc(CC(C)(C)C(F)F)cc1OC(F)F (stereo in doubt) [Example 39, 4-Chloro-5-(6-(3,3-difluoro-2,2-dimethylpropyl)-4-(difluoromethoxy)pyridin-3-yl)-N-(((1S*,2S*,4S*)-1,2-dihydroxy-4-(methylsulfonyl)cyclohexyl)methyl)-1-ethyl-1H-pyrazole-3-carboxamide] | 40 | 730 | 72 |  | 
CCn1nc(C(=O)NC[C@]2(O)CC[C@@H](S(C)(=O)=O)C[C@H]2O)c(Cl)c1-c1cnc(CC(C)(C)C(F)F)cc1OC(F)F (stereo in doubt) [Example 40, 4-Chloro-5-(6-(3,3-difluoro-2,2-dimethylpropyl)-4-(difluoromethoxy)pyridin-3-yl)-N-(((1R*,2R*,4R*)-1,2-dihydroxy-4-(methylsulfonyl)cyclohexyl)methyl)-1-ethyl-1H-pyrazole-3-carboxamide] | 40 | 570 | 84 |  | 
CCn1nc(C(=O)NC[C@@]2(O)CC[C@H](S(C)(=O)=O)C[C@@H]2O)c(Cl)c1-c1ccc(CC(C)(C)C(F)(F)F)nc1OC(F)F (stereo in doubt) [Example 48, 4-Chloro-5-(2-(difluoromethoxy)-6-(3,3,3-trifluoro-2,2-dimethylpropyl)pyridin-3-yl)-N-(((1S*,2S*,4S*)-1,2-dihydroxy-4-(methylsulfonyl)cyclohexyl)methyl)-1-ethyl-1H-pyrazole-3-carboxamide] | 2 | 5.7 | 101 |  | 
CCn1nc(C(=O)NC[C@]2(O)CC[C@@H](S(N)(=O)=O)CC2)c(C)c1-c1cnc(CC(C)(C)C(F)(F)F)cc1OC(F)F [Example 2, 5-(4-(Difluoromethoxy)-6-(3,3,3-trifluoro-2,2-dimethylpropyl)pyridin-3-yl)-1-ethyl-N-(((1s,4s)-1-hydroxy-4-sulfamoylcyclohexyl)methyl)-4-methyl-1H-pyrazole-3-carboxamide] | 29 | 930 | 104 |  | 
CCn1nc(C(=O)NC[C@H]2CC[C@H](S(=O)(=O)NC(=O)NC)CC2)c(Cl)c1-c1cnc(CC(C)(C)C(F)(F)F)cc1OC(F)F [Example 6, 4-Chloro-5-(4-(difluoromethoxy)-6-(3,3,3-trifluoro-2,2-dimethylpropyl)pyridin-3-yl)-1-ethyl-N-(((1r,4r)-4-(N-(methylcarbamoyl)sulfamoyl)cyclohexyl)methyl)-1H-pyrazole-3-carboxamide] | 1.9 | 270 |  |  | 87* %

More lines, in order of falling Kd [1], values ahead:

Kd [1] [nM] | IC50 [2] [nM] | inhibition at 3 µM [2, 3] [%] | inhibition at 1 µM ([2]; HEK-293T, 1 μM compound concentration (footnote ***), read-out: RORγt (FL) Reporter Assay A or B, % inhibition) [%] | RORγt (FL) Reporter Assay A or B, % inhibition [2] | SMILES
69 | 890 | 85 |  |  | CCn1nc(C(=O)NC[C@]2(O)CC[C@@H](S(C)(=O)=O)C[C@H]2O)c(C)c1-c1cnc(CC(C)(C)C(F)F)cc1OC(F)F (stereo in doubt) [Example 44, 5-(6-(3,3-Difluoro-2,2-dimethylpropyl)-4-(difluoromethoxy)pyridin-3-yl)-N-(((1R*,2R*,4R*)-1,2-dihydroxy-4-(methylsulfonyl)cyclohexyl)methyl)-1-ethyl-4-methyl-1H-pyrazole-3-carboxamide]
66 | 320 |  | 84 |  | CCn1nc(C(=O)NC[C@@]2(O)CC[C@H](S(C)(=O)=O)C[C@@H]2O)c(C)c1-c1cnc(CC(C)(C)C(F)F)cc1OC(F)F (stereo in doubt) [Example 43, 5-(6-(3,3-Difluoro-2,2-dimethylpropyl)-4-(difluoromethoxy)pyridin-3-yl)-N-(41S*,2S*,4S*)-1,2-dihydroxy-4-(methylsulfonyl)cyclohexyl)methyl)-1-ethyl-4-methyl-1H-pyrazole-3-carboxamide]
11 | 110 | 116 |  |  | CCn1nc(C(=O)NC[C@]2(O)CC[C@@H](S(N)(=O)=O)CC2)c(Cl)c1-c1cnc(CC(C)(C)C(F)(F)F)cc1OC(F)F [Example 1, 4-Chloro-5-(4-(difluoromethoxy)-6-(3,3,3-trifluoro-2,2-dimethylpropyl)pyridin-3-yl)-1-ethyl-N-(((1s,4s)-1-hydroxy-4-sulfamoylcyclohexyl)methyl)-1H-pyrazole-3-carboxamide]
8.7 | 430 |  |  | 79* % | CCn1nc(C(=O)NC[C@H]2CC[C@H](S(=O)(=O)NC(C)=O)CC2)c(Cl)c1-c1cnc(CC(C)(C)C(F)(F)F)cc1OC(F)F [Example 5, N-(((1r,4r)-4-(N-acetylsulfamoyl)cyclohexyl)methyl)-4-chloro-5-(4-(difluoromethoxy)-6-(3,3,3-trifluoro-2,2-dimethylpropyl)pyridin-3-yl)-1-ethyl-1H-pyrazole-3-carboxamide]
2.9 | 240 |  |  | 100* % | CCn1nc(C(=O)NC[C@H]2CC[C@H](S(=O)(=O)NC(N)=O)CC2)c(Cl)c1-c1cnc(CC(C)(C)C(F)(F)F)cc1OC(F)F [Example 7, N-(((1r,4r)-4-(N-carbamoylsulfamoyl)cyclohexyl)methyl)-4-chloro-5-(4-(difluoromethoxy)-6-(3,3,3-trifluoro-2,2-dimethylpropyl)pyridin-3-yl)-1-ethyl-1H-pyrazole-3-carboxamide]
1.7 | 44 | 95 |  |  | CCn1nc(C(=O)NC[C@]2(O)CC[C@@H](S(C)(=O)=O)C[C@H]2O)c(Cl)c1-c1ccc(CC(C)(C)C(F)(F)F)nc1OC(F)F (stereo in doubt) [Example 47, 4-Chloro-5-(2-(difluoromethoxy)-6-(3,3,3-trifluoro-2,2-dimethylpropyl)pyridin-3-yl)-N-(((1R*,2R*,4R*)-1,2-dihydroxy-4-(methylsulfonyl)cyclohexyl)methyl)-1-ethyl-1H-pyrazole-3-carboxamide]
